Patent US20210261512A1, “NOVEL COMPOUNDS” (INFLAZOME LIMITED, priority 2018, published 2021)

Key:
[1] = PK, intravenous administration; assay type: in vivo; settings: rat, plasma, male Sprague Dawley rats, dose about 1 mg/kg; for Vd: read-out: Vdss
Protocol: Pharmacokinetic parameters were determined in male Sprague Dawley rats (Vital River Laboratory Animal Technology Co Ltd, Beijing, China, 6-9 weeks old). Animals were maintained under a 12 h light/dark cycle. Animals had free access to food and water, except that orally dosed animals were food deprived overnight prior to the study.
For intravenous administration, compounds were formulated as a solution (in DMSO:water [10:90] or in DMSO:PBS [10:90]) in 2 mL/kg dosing volume and administered via tail vein. For oral administration, compounds were formulated as a solution (in 0.5% methylcellulose in water) in […] dosing volume and administered orally.
Serial blood samples (about 200 μL) were taken from each animal at each of 8 time-points post dose ([…], 0.25, 0.5, 1, 2, 4, 8 and 24 h). Samples were held on ice for no longer than 30 minutes before centrifugation (5,696 rpm (3,000 g) for 15 minutes) for plasma generation. Plasma was frozen on dry ice prior to bioanalysis. PK parameters were generated from LC-MS/MS data using Phoenix WinNonlin 6.3 software.

NLRP3 = NLRP3 (Homo sapiens, UniProt Q96P20); assay: THP-1 cells pyroptosis assay; assay type: cell-based; parameters: Seed THP-1 cells (25,000 cells/well) containing 1.0 μg/ml LPS; host or cells: THP-1; settings: LPS 1.0 μg/ml, nigericin 5 μM, resazurin readout, 10 μM top dose (Example 2: top dose of 30 μM)
Chain of NLRP3 (Q96P20 whole entry): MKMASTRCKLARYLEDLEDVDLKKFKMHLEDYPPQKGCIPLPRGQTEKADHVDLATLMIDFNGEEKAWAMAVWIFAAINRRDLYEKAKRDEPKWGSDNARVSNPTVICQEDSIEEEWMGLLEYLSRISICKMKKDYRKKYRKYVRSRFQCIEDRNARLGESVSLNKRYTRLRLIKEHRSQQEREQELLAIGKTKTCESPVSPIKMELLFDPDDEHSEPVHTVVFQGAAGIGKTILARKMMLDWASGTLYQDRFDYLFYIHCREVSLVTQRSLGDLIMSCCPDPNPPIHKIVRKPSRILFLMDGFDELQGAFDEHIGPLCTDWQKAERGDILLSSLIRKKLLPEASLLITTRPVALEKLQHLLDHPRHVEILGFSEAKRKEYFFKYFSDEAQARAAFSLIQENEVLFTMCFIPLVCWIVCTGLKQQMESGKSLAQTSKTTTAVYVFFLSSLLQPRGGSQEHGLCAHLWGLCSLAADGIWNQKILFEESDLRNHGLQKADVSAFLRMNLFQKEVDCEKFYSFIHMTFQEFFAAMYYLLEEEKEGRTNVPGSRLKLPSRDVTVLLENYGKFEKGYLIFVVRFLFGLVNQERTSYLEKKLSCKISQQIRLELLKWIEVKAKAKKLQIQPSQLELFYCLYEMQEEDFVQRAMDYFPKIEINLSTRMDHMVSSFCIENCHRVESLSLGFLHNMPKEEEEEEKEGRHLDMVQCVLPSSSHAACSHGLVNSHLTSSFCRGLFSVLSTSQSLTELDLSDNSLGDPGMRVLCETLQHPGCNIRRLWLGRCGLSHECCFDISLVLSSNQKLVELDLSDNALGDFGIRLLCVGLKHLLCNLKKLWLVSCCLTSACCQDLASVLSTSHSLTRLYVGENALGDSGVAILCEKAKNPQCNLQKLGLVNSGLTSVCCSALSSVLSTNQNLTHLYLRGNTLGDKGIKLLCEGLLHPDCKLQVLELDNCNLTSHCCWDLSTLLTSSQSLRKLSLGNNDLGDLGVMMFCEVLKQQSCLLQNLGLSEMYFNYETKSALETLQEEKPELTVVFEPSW
Procedure, shortened: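 THP-1 cells (25,000/well) primed with 1 μg/ml LPS in serum-free RPMI, treated with compound (8-point dilution, 10 μM top unless stated; 0.1% DMSO) 3 h at 37°C, then nigericin 5 μM 1 h. Viability read by resazurin (100 μM, 1-2 h) fluorescence; IC50 from 4-parameter fit.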

IC50 (NLRP3) [µM]	Compound	other results
≤ 5	N#Cc1cccc(S(=O)(=O)c2nnc(Nc3c4c(cc5c3CCC5)CCC4)[nH]2)c1 [Example 188, 3-((5-((1,2,3,5,6,7-hexahydro-s-indacen-4-yl)amino)-4H-1,2,4-triazol-3-yl)sulfonyl)benzonitrile]	–
≤ 5	COCC(C)Oc1cc(-c2c(C)cc3c(c2Nc2nnc(S(C)(=O)=O)[nH]2)CCC3)ccn1 (stereo not drawn) [Example 363, N-(5-(2-((1-methoxypropan-2-yl)oxy)-pyridin-4-yl)-6-methyl-2,3-dihydro-1H-inden-4-yl)-5-(methylsulfonyl)-4H-1,2,4-triazol-3-amine]	–
≤ 5	COC(C)(C)C1CCN(S(=O)(=O)c2nnc(Nc3c4c(cc5c3CCC5)CCC4)[nH]2)C1 (stereo not drawn) [Example 282, N-(1,2,3,5,6,7-hexahydro-s-indacen-4-yl)-5-((3-(2-methoxypropan-2-yl)pyrrolidin-1-yl)sulfonyl)-4H-1,2,4-triazol-3-amine]	–
≤ 5	CC(C)n1cc(S(=O)(=O)c2nnc(Nc3c4c(cc5c3CCC5)CCC4)[nH]2)cn1 [Example 338, N-(1,2,3,5,6,7-hexahydro-s-indacen-4-yl)-5-((1-isopropyl-1H-pyrazol-4-yl)sulfonyl)-4H-1,2,4-triazol-3-amine]	–
≤ 10	COC1(c2cc([S+]([O-])c3nnc(Nc4c5c(cc6c4CCC6)CCC5)[nH]3)nn2C)COC1 (stereo not drawn) [Example 26, N-(1,2,3,5,6,7-hexahydro-s-indacen-4-yl)-5-((5-(3-methoxyoxetan-3-yl)-1-methyl-1H-pyrazol-3-yl)sulfinyl)-4H-1,2,4-triazol-3-amine]	–
≤ 5	O=S(=O)(c1nnc(Nc2c3c(cc4c2CCC4)CCC3)[nH]1)N1CCC2(CCOC2)C1 (stereo not drawn) [Example 314, 5-(2-oxa-7-azaspiro[4.4]nonan-7-ylsulfonyl)-N-(1,2,3,5,6,7-hexahydro-s-indacen-4-yl)-4H-1,2,4-triazol-3-amine]	–
≤ 5	CC(C)(O)C1CCCN(S(=O)(=O)c2nnc(Nc3c4c(cc5c3CCC5)CCC4)[nH]2)C1 (stereo not drawn) [Example 315, 2-(1-((5-((1,2,3,5,6,7-hexahydro-s-indacen-4-yl)amino)-4H-1,2,4-triazol-3-yl)sulfonyl)piperidin-3-yl)propan-2-ol]	–
≤ 5	CC(C)(O)Cn1cc(S(=O)(=O)c2nnc(Nc3c4c(cc5c3CCC5)CCC4)[nH]2)cn1 [Example 336, 1-(4-((5-((1,2,3,5,6,7-hexahydro-s-indacen-4-yl)amino)-4H-1,2,4-triazol-3-yl)sulfonyl)-1H-pyrazol-1-yl)-2-methylpropan-2-ol]	–
≤ 10	O=S(=O)(CC1CCCN1)c1nnc(Nc2c3c(cc4c2CCC4)CCC3)[nH]1 (stereo not drawn) [Example 62, N-(1,2,3,5,6,7-hexahydro-s-indacen-4-yl)-3-((pyrrolidin-2-ylmethyl)sulfonyl)-1H-1,2,4-triazol-5-amine]	–
≤ 10	COc1cc(-c2cc(-c3ncco3)c3c(c2Nc2nnc(S(=O)(=O)N4CCC(N(C)C)CC4)[nH]2)CCC3)ccn1 [Example 229, 1-((5-((5-(2-methoxypyridin-4-yl)-7-(oxazol-2-yl)-2,3-dihydro-1H-inden-4-yl)amino)-4H-1,2,4-triazol-3-yl)sulfonyl)-N,N-dimethylpiperidin-4-amine]	–

The remaining lines, values behind:

Compound	IC50 (NLRP3) [µM]	other results
CN1CCC(Oc2cc(-c3ccc4c(c3Nc3nnc(S(C)(=O)=O)[nH]3)CCC4)ccn2)CC1 [Example 235, N-(5-(2-((1-methylpiperidin-4-yl)oxy)pyridin-4-yl)-2,3-dihydro-1H-inden-4-yl)-5-(methylsulfonyl)-4H-1,2,4-triazol-3-amine]	≤ 10	AUC [1]: 430 ng·h/mL; clearance [1]: 38.7 mL/min/kg; half-life [1]: 2.16 h; Vd [1]: 0.935 L/kg
CC(C)n1ccc(S(=O)(=O)c2nnc(Nc3c4c(cc5c3CCC5)CCC4)[nH]2)n1 [Example 337, N-(1,2,3,5,6,7-hexahydro-s-indacen-4-yl)-5-((1-isopropyl-1H-pyrazol-3-yl)sulfonyl)-4H-1,2,4-triazol-3-amine]	≤ 0.5	AUC [1]: 981 ng·h/mL; clearance [1]: 17 mL/min/kg; half-life [1]: 0.595 h; Vd [1]: 0.54 L/kg
Cc1cc(-c2cc(F)cc(C(C)C)c2Nc2nnc(S(=O)(=O)N3CCC(N(C)C)CC3)[nH]2)ccn1 [Example 302, 1-((5-((4-fluoro-2-isopropyl-6-(2-methylpyridin-4-yl)phenyl)amino)-1H-1,2,4-triazol-3-yl)sulfonyl)-N,N-dimethylpiperidin-4-amine]	≤ 5	AUC [1]: 153 ng·h/mL; clearance [1]: 109 mL/min/kg; half-life [1]: 1.34 h; Vd [1]: 4.03 L/kg
O=S(=O)(c1cccnn1)c1n[nH]c(Nc2c3c(cc4c2CCC4)CCC3)n1 [Example 167, N-(1,2,3,5,6,7-hexahydro-s-indacen-4-yl)-3-(pyridazin-3-ylsulfonyl)-1H-1,2,4-triazol-5-amine]	≤ 5	–
O=S(=O)(NC1CCCNC1)c1nnc(Nc2c3c(cc4c2CCC4)CCC3)[nH]1 (stereo not drawn) [Example 112, 5-((1,2,3,5,6,7-hexahydro-s-indacen-4-yl)amino)-N-(piperidin-3-yl)-4H-1,2,4-triazole-3-sulfonamide]	≤ 5	–
O=S(=O)(c1ccn(C2CC2)n1)c1nnc(Nc2c3c(cc4c2CCC4)CCC3)[nH]1 [Example 354, 5-((1-cyclopropyl-1H-pyrazol-3-yl)sulfonyl)-N-(1,2,3,5,6,7-hexahydro-s-indacen-4-yl)-4H-1,2,4-triazol-3-amine]	≤ 0.5	–
Cc1cc2c(c(Nc3nnc(S(C)(=O)=O)[nH]3)c1-c1ccnc(OCC3CCCN(C)C3)c1)CCC2 (stereo not drawn) [Example 362, N-(6-methyl-5-(2-((1-methylpiperidin-3-yl)methoxy)pyridin-4-yl)-2,3-dihydro-1H-inden-4-yl)-5-(methylsulfonyl)-4H-1,2,4-triazol-3-amine]	≤ 5	–
CN1CCC[C@H](NS(=O)(=O)c2nnc(Nc3c4c(cc5c3CCC5)CCC4)[nH]2)C1 [Example 105, (S)-5-((1,2,3,5,6,7-hexahydro-s-indacen-4-yl)amino)-N-(1-methylpiperidin-3-yl)-4H-1,2,4-triazole-3-sulfonamide]	≤ 5	–
CN1CCC2CN(S(=O)(=O)c3nnc(Nc4c5c(cc6c4CCC6)CCC5)[nH]3)CC21 (stereo not drawn) [Example 101, N-(1,2,3,5,6,7-hexahydro-s-indacen-4-yl)-5-((1-methylhexahydropyrrolo[3,4-b]pyrrol-5 (1H)-yl)sulfonyl)-4H-1,2,4-triazol-3-amine]	≤ 5	–
O=C1CC2(CN1)CN(S(=O)(=O)c1nnc(Nc3c4c(cc5c3CCC5)CCC4)[nH]1)C2 [Example 332, 2-((5-((1,2,3,5,6,7-hexahydro-s-indacen-4-yl)amino)-4H-1,2,4-triazol-3-yl)sulfonyl)-2,6-diazaspiro[3.4]octan-7-one]	≤ 10	–
CCN(CC)CCS(=O)(=O)Cc1nnc(Nc2c3c(cc4c2CCC4)CCC3)[nH]1 [Example 373, 5-(((2-(diethylamino)ethyl)sulfonyl)methyl)-N-(1,2,3,5,6,7-hexahydro-s-indacen-4-yl)-4H-1,2,4-triazol-3-amine]	≤ 10	–
CN1CCC(COc2cc(-c3ccc4c(c3Nc3nnc(S(C)(=O)=O)[nH]3)CCC4)ccn2)C1 (stereo not drawn) [Example 358, N-(5-(2-((1-methylpyrrolidin-3-yl)methoxy)pyridin-4-yl)-2,3-dihydro-1H-inden-4-yl)-5-(methylsulfonyl)-4H-1,2,4-triazol-3-amine]	≤ 10	–
COc1ccccc1S(=O)(=O)c1nnc(Nc2c3c(cc4c2CCC4)CCC3)[nH]1 [Example 173, N-(1,2,3,5,6,7-hexahydro-s-indacen-4-yl)-5-((2-methoxyphenyl)sulfonyl)-4H-1,2,4-triazol-3-amine]	≤ 1	–
O=S(=O)(c1nnc(Nc2c3c(cc4c2CCC4)CCC3)[nH]1)N1CC[C@H](CO)C1 [Example 284, (S)-(1-((5-((1,2,3,5,6,7-hexahydro-s-indacen-4-yl)amino)-4H-1,2,4-triazol-3-yl)sulfonyl)pyrrolidin-3-yl)methanol]	≤ 10	–
O=S(=O)(c1cccnc1)c1nnc(Nc2c3c(cc4c2CCC4)CCC3)[nH]1 [Example 177, N-(1,2,3,5,6,7-hexahydro-s-indacen-4-yl)-5-(pyridin-3-ylsulfonyl)-4H-1,2,4-triazol-3-amine]	≤ 5	–
O=S(=O)(c1cnn(CCO)c1)c1nnc(Nc2c3c(cc4c2CCC4)CCC3)[nH]1 [Example 335, 2-(4-((5-((1,2,3,5,6,7-hexahydro-s-indacen-4-yl)amino)-4H-1,2,4-triazol-3-yl)sulfonyl)-1H-pyrazol-1-yl)ethanol]	≤ 5	–
O=S(=O)(NCc1cccnc1)c1nnc(Nc2c3c(cc4c2CCC4)CCC3)[nH]1 [Example 97, 5-((1,2,3,5,6,7-hexahydro-s-indacen-4-yl)amino)-N-(pyridin-3-ylmethyl)-4H-1,2,4-triazole-3-sulfonamide]	≤ 5	–
